Data set [1] concerns the target Human immunodeficiency virus type 1 protease (Human immunodeficiency virus 1) (UniProt Q72874). The data set can be described thus: Inhibition of HIV-1 protease in vitro.
A short description of data set [2]: Partition coefficient (logP). Conditions: octanol/water.
Data set [3] deals with T1, Human immunodeficiency virus type 1 protease (Human immunodeficiency virus 1, UniProt Q72874).
The next data set is described as follows: in vivo. To be noted: dog, po, 10 mg/kg.
Data set [4] is described as follows: Maximal plasma concentration in dogs at 10mg/kg oral dose 0.05M citric acid. Conditions: dog.
For data set [5], the target named is T1, Human immunodeficiency virus type 1 protease. The data set can be described thus: Concentration required for 50% inhibition of Protease.
Data set [6] deals with Human immunodeficiency virus type 1 protease (Human immunodeficiency virus 1) (UniProt Q72874). The data set can be described thus: Concentration required for 95% inhibition of Protease.
Data set [7] has the same target. As to the kind of experiment: Concentration required for 95%Inhibition of Protease.

The record followed here is ChEMBL document CHEMBL1133637, “Identification of MK-944a: a second clinical candidate from the hydroxylaminepentanamide isostere series of HIV protease inhibitors” (J Med Chem, 2000).

Usually IC95 stands for the concentration at which the effect reaches the 95% level. The logP is the decadic logarithm of the partition coefficient of the neutral form, usually between octanol and water. Low values mean a more hydrophilic compound, high ones a more lipophilic compound. The IC50 is the concentration that gives 50% inhibition. In data set [1], `CC(C)(C)NC(=O)[C@@H]1CN(Cc2ccc(Cl)nc2)CCN1C[C@@H](O)C[C@@H](Cc1ccccc1)C(=O)NC1c2ccccc2C[C@H]1O` (stereo not given in full) showed an IC95 of 12 nM. The logP in data set [2] was > 3.84. The IC50 in data set [3] is 0.49 nM.

Compound `Cc1cc2oc(CN3CCN(C[C@@H](O)C[C@@H](Cc4ccccc4)C(=O)NC4c5ccccc5C[C@H]4O)[C@H](C(=O)NC(C)(C)C)C3)cc2cn1` (stereo not given in full) gave an IC95 in data set [1] of 12 nM. Half-maximal inhibition in data set [3] (IC50) required 0.19 nM.

What is called Cmax is the peak of the concentration-time curve. Turning to `CC(C)(C)NC(=O)[C@@H]1CN(Cc2cnc3ccoc3c2)CCN1C[C@@H](O)C[C@@H](Cc1ccccc1)C(=O)NC1c2ccccc2C[C@H]1O` (stereo not given in full), the IC95 in data set [1] worked out at 3 nM. The same compound showed a concentration at 8 h in the data set “in vivo” of 1.55 µM. In addition, in data set [4], the Cmax came to 9.72 µM. Besides, the IC50 in data set [3] was 0.17 nM.

In data set [1], `CC(C)(C)NC(=O)[C@@H]1CN(Cc2cc3cnccc3o2)CCN1C[C@@H](O)C[C@@H](Cc1ccccc1)C(=O)NC1c2ccccc2C[C@H]1O` (stereo not given in full) returned an IC95 of 6 nM. 0.22 nM corresponded to half-maximal inhibition in data set [3] (IC50).

In the case of `CC(C)(C)NC(=O)[C@@H]1CN(Cc2cc3ccsc3s2)CCN1C[C@@H](O)C[C@@H](Cc1cccnc1)C(=O)N[C@H]1c2ccccc2C[C@H]1O`, the IC95 in data set [1] turned out to be 6 nM.

In the case of `CC(C)(C)NC(=O)[C@@H]1CN(Cc2cnc3occc3c2Cl)CCN1C[C@@H](O)C[C@@H](Cc1ccccc1)C(=O)NC1c2ccccc2C[C@H]1O` (stereo not given in full), the 95% effect level in data set [1] (IC95) was put at 15.6 nM. In the data set “in vivo”, this compound showed a concentration at 8 h of 2.06 µM. In addition, in data set [4], the highest level (Cmax) was 3.94 µM. Further, the IC50 in data set [3] came out at 0.25 nM.

Take `CC(C)(C)NC(=O)[C@@H]1CN(Cc2nc3ccccc3[nH]2)CCN1C[C@@H](O)C[C@@H](Cc1ccccc1)C(=O)NC1c2ccccc2C[C@H]1O` (stereo not given in full): in data set [1], the IC95 was found to be 200 nM. Besides, the half-inhibitory concentration (IC50) in data set [3] was found to be 0.47 nM.

Take `CC(C)(C)NC(=O)C1CN(Cc2c[nH]c3ccccc23)CCN1CC(O)CC(Cc1ccccc1)C(=O)NC1c2ccccc2CC1O` (stereo not given): the IC95 in data set [1] came out at 50 nM. The IC50 in data set [3] worked out at 1.7 nM.

In turn, `CCOc1ccc(CN2CCN(C[C@@H](O)C[C@@H](Cc3ccccc3)C(=O)NC3c4ccccc4C[C@H]3O)[C@H](C(=O)NC(C)(C)C)C2)cn1` (stereo not given in full) came in with an IC95 in data set [1] of 100 nM. The compound further displayed a logP in data set [2] of 3.62. Besides, in data set [4], the Cmax stood at 0.3 µM. In addition, the IC50 in data set [3] stood at 3.4 nM.

With `CC(C)(C)NC(=O)C1CN(Cc2cc3cc(CO)cnc3o2)CCN1CC(O)CC(Cc1ccccc1)C(=O)NC1c2ccccc2CC1O` (stereo not given), 0.18 nM corresponded to half-maximal inhibition in data set [5] (IC50). The same compound returned an IC95 in data set [6] of 62.5 nM.

Take `CC(C)(C)NC(=O)[C@@H]1CN(Cc2cnc3ccccc3c2)CCN1C[C@@H](O)C[C@@H](Cc1ccccc1)C(=O)NC1c2ccccc2C[C@H]1O` (stereo not given in full): it took 25 nM to reach the 95% level in data set [1] (IC95). Besides, the IC50 in data set [3] was found to be 0.14 nM.

The compound `CC(C)(C)NC(=O)[C@@H]1CN(Cc2cnc3occc3c2)CCN1C[C@@H](O)C[C@@H](Cc1ccccc1)C(=O)N[C@H]1c2ccccc2C[C@H]1O` registered an IC95 in data set [1] of 6 nM. The compound also displayed a concentration at 8 h in the data set “in vivo” of 9.43 µM. Also, the concentration in data set [4] peaked (Cmax) at 15 µM. This compound also had an IC50 in data set [3] of 0.35 nM.

As for `CC(C)(C)NC(=O)[C@@H]1CN(Cc2cc3ccccc3o2)CCN1C[C@@H](O)C[C@@H](Cc1ccccc1)C(=O)N[C@H]1c2ccccc2C[C@H]1O` [L 756423], the IC95 in data set [1] is 25 nM. In the data set “in vivo”, this compound showed a concentration at 8 h of 0.8 µM. The compound also gave a Cmax in data set [4] of 28.3 µM. The compound also came in with an IC50 in data set [3] of 0.18 nM.

Consider `CC(C)(C)NC(=O)C1CN(Cc2csc3ncccc23)CCN1CC(O)CC(Cc1ccccc1)C(=O)NC1c2ccccc2CC1O` (stereo not given), for which it took 6 nM to reach the 95% level in data set [7] (IC95). The IC50 in data set [5] worked out at 0.2 nM. In data set [4], this compound displayed a Cmax of 0.23 µM.

`CC(C)(C)NC(=O)C1CN(Cc2cc3cccnc3o2)CCN1CC(O)CC(Cc1ccccc1)C(=O)NC1c2ccccc2CC1O` (stereo not given) yielded an IC95 in data set [1] of 50 nM. In data set [4], this compound came in with a Cmax of 1.17 µM. This compound also showed an IC50 in data set [3] of 0.32 nM.

As for `Cc1nn(C)c2ncc(CN3CCN(C[C@@H](O)C[C@@H](Cc4ccccc4)C(=O)NC4c5ccccc5C[C@H]4O)[C@H](C(=O)NC(C)(C)C)C3)c(Cl)c12` (stereo not given in full), in data set [5], the IC50 stood at 0.14 nM. The IC95 in data set [6] stood at 12.5 nM.

In data set [1], `CC(C)(C)NC(=O)C1CN(Cc2cc3cccnc3s2)CCN1CC(O)CC(Cc1ccccc1)C(=O)NC1c2ccccc2CC1O` (stereo not given) yielded an IC95 of 12.5 nM. Moreover, half-maximal inhibition in data set [3] (IC50) required 0.11 nM.

In the case of `Cc1ccc(CN2CCN(C[C@@H](O)C[C@@H](Cc3ccccc3)C(=O)NC3c4ccccc4C[C@H]3O)[C@H](C(=O)NC(C)(C)C)C2)cn1` (stereo not given in full), the IC95 in data set [1] was 100 nM. In addition, in data set [2], the logP turned out to be 2.14. For the same compound, the IC50 in data set [3] worked out at 0.62 nM.

For `Cc1c(CN2CCN(CC(O)CC(Cc3ccccc3)C(=O)NC3c4ccccc4CC3O)C(C(=O)NC(C)(C)C)C2)oc2ccccc12` (stereo not given), 0.11 nM corresponded to half-maximal inhibition in data set [5] (IC50). The Cmax in data set [4] turned out to be 0.408 µM. Moreover, in data set [6], the IC95 was found to be 25 nM.

In data set [1], `CSc1ncccc1CN1CCN(C[C@@H](O)C[C@@H](Cc2ccccc2)C(=O)NC2c3ccccc3C[C@H]2O)[C@H](C(=O)NC(C)(C)C)C1` (stereo not given in full) gave an IC95 of 15.6 nM. Moreover, the IC50 in data set [3] is 0.26 nM.

Consider `COc1ncccc1CN1CCN(C[C@@H](O)C[C@@H](Cc2ccccc2)C(=O)NC2c3ccccc3C[C@H]2O)[C@H](C(=O)NC(C)(C)C)C1` (stereo not given in full), for which the 95% effect level in data set [1] (IC95) was put at 12 nM. Moreover, the logP in data set [2] was > 3.84. Further, the Cmax in data set [4] came out at 0.515 µM. Also, in data set [3], the IC50 amounted to 1.1 nM.

Compound `CC(C)(C)NC(=O)C1CN(Cc2ccc3occc3c2)CCN1CC(O)CC(Cc1ccccc1)C(=O)NC1c2ccccc2CC1O` (stereo not given) came in with an IC95 in data set [1] of 100 nM. The compound also had an IC50 in data set [3] of 1.7 nM.

`CC(C)(C)NC(=O)[C@@H]1CN(Cc2cnc3c(c2)CCO3)CCN1C[C@@H](O)C[C@@H](Cc1ccccc1)C(=O)NC1c2ccccc2C[C@H]1O` (stereo not given in full) had an IC95 in data set [1] of 25 nM. Moreover, in data set [4], the highest level (Cmax) was 0.16 µM. The same compound had an IC50 in data set [3] of 0.68 nM.

`CC(C)(C)NC(=O)[C@@H]1CN(C(=O)c2cnc3occc3c2)CCN1C[C@@H](O)C[C@@H](Cc1ccccc1)C(=O)NC1c2ccccc2C[C@H]1O` (stereo not given in full) returned an IC50 in data set [5] of 1.7 nM. In data set [4], the peak level (Cmax) was 0.13 µM. This compound also gave an IC95 in data set [6] of 100 nM.

In data set [1], `CC(C)(C)NC(=O)[C@@H]1CN(Cc2cccnc2)CCN1C[C@@H](O)C[C@@H](Cc1ccccc1)C(=O)N[C@H]1c2ccccc2C[C@H]1O` yielded an IC95 of 50 nM.

In data set [5], `CCOC(=O)c1cnc2oc(CN3CCN(CC(O)CC(Cc4ccccc4)C(=O)NC4c5ccccc5CC4O)C(C(=O)NC(C)(C)C)C3)cc2c1` (stereo not given) returned an IC50 of 0.27 nM. In data set [6], this compound displayed an IC95 of 25 nM.

In data set [1], `CC(C)(C)NC(=O)[C@@H]1CN(Cc2cc3ccncc3o2)CCN1C[C@@H](O)C[C@@H](Cc1ccccc1)C(=O)NC1c2ccccc2C[C@H]1O` (stereo not given in full) displayed an IC95 of 12.5 nM. For the same compound, the Cmax in data set [4] turned out to be 36.5 µM. This compound came in with an IC50 in data set [3] of 0.39 nM.

Take `Cc1nn(C)c2ncc(CN3CCN(C[C@@H](O)C[C@@H](Cc4ccccc4)C(=O)NC4c5ccccc5C[C@H]4O)[C@H](C(=O)NC(C)(C)C)C3)cc12` (stereo not given in full): in data set [5], inhibition was half-maximal at 0.35 nM (IC50). Besides, the highest level in data set [4] (Cmax) was 0.19 µM. The same compound returned an IC95 in data set [6] of 6 nM.
